Assay [1] concerns the target T1, Recombinant human TPH1 (MBP tagged) (Homo sapiens, UniProt P17752).
T1 construct: cloning full length human TPH1 cDNA in to a bacterial pMAL-c5E expression vector; made in house; host or cells: E. coli BL21 (DE3)
T1 sequence (P17752 1-444): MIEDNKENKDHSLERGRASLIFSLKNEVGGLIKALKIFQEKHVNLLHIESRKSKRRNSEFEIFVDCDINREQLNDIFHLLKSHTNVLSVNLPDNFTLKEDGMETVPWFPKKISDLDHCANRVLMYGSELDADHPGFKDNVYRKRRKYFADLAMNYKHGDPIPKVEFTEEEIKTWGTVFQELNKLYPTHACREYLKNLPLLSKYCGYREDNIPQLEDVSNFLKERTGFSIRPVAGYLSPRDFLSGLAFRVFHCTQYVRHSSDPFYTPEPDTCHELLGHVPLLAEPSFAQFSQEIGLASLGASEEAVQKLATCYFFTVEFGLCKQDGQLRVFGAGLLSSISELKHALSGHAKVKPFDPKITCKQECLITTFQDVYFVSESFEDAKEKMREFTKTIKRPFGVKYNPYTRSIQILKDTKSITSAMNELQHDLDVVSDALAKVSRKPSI
The assay is described as follows: TPH1 in vitro inhibition assay (kinetic fluorescence). It is filed as biochemical. In a few lines: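 Final mix: 15 nM MBP-TPH1, 30 μM Trp, 36 μM 6-methyltetrahydropterin, 25 μM ferrous ammonium sulfate, 50 mM MES pH 7.1, 1% DMSO, room temperature.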

Assay [2] concerns jejunal mucosal 5-HT in mice (C57 BL6). The assay is described as follows: Intestinal 5-HT depletion assay (Example B, single 150 mg/kg oral dose). It is filed as in vivo, mouse. The note with it: one day after oral administration of a single 150 mg/kg dose, P-value class (ANOVA). In a few lines: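 C57 BL6 mice received one 150 mg/kg oral gavage dose; jejunal mucosa was homogenized in acidic trichloroacetic acid buffer and 5-HT measured by HPLC. Levels normalized to BCA protein, expressed as mean percent reduction versus vehicle ± SEM; ANOVA significance.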

The test system is the same in assay [3]. The assay is described as follows: Reduction of mucosal 5-HT concentrations (Example C, repeated oral dosing). It is filed as in vivo, mouse. Particulars: after three oral doses (first 10 or 50 mg/kg, then two doses of 50 mg/kg) (title), P-value class. As for the experimental part: The efficacy of the TPH1 inhibitors of the invention was assessed for the ability to decrease intestinal serotonin concentration in mice. Mice (C57 BL6) were administered an oral dose of 10 or 50 mg/kg of the test article in the evening. […] Following an overnight fast, each animal was euthanized by exsanguination under isoflurane anesthesia. Jejunal intestinal mucosa was isolated and homogenized in […] of a buffer containing 0.3M trichloroacetic acid, 0.1M sodium acetate, 10 mM EDTA, 20 mM sodium bisulfate and 50 mM ascorbic acid. Following centrifugation the 5-HT levels in the supernatants were measured by HPLC. The remaining mucosal pellet was solubilized overnight at 37° C. in a 0.1% sodium dodecyl sulfate buffer in 0.1N NaOH followed by determination of protein concentrations using a BCA protein assay (Pierce, Rockford, Ill.). 5-HT levels were normalized to protein and data were expressed as mean percent reduction of mucosal 5-HT levels relative to vehicle control±SEM (percent 5-HT reduction). All animal studies were carried out with protocols approved by the Institutional Animal Care and Use Committee. P-values, indicating statistical significance of the data (ANOVA) are provided in the table: * refers to P<0.05,** refers to P<0.01, *** refers to P<0.005, and **** refers to P<0.0005.

The mark [4] stands for this setting: read-out: TPH1 Range (TPH1 inhibition IC50).
The mark [5] stands for this setting: TPH1 Range (TPH1 inhibition IC50).

The text below walks through data of patent US11759462B2, “Spirocyclic compounds as tryptophan hydroxylase inhibitors” (priority 2013, dated 2023).

A word on the IC50: it is the concentration at which inhibition is half-maximal.

Where two headings read alike, the source gives them in different places. Some results are limits rather than exact numbers.

With `CCCc1ccc([C@@H](Oc2cc(N3CCC4(CC3)CN[C@H](C(=O)O)C4)nc(N)n2)C(F)(F)F)c(-n2ccc(C)n2)c1` [Example 12b, (S)-8-(2-amino-6-((R)-2,2,2-trifluoro-1-(2-(3-methyl-1H-pyrazol-1-yl)-4-propylphenyl)ethoxy)pyrimidin-4-yl)-2,8-diazaspiro[4.5]decane-3-carboxylic acid], in assay [1] (setting [4]), the concentration for half-maximal inhibition (IC50) was less than 50 nM. Moreover, in assay [2], the “Efficacy (statistical significance of reduction of mucosal 5-HT concentrations relative to vehicle)” value was “* (* refers to P<0.05)”.

For the compound `Cc1ccn(-c2cc(C(=O)O)ccc2[C@@H](Oc2cc(N3CCC4(CC3)CN[C@H](C(=O)O)C4)nc(N)n2)C(F)(F)F)n1` [Example 16, (S)-8-(2-amino-6-((R)-1-(4-carboxy-2-(3-methyl-H-pyrazol-1-yl)phenyl)-2,2,2-trifluoroethoxy)pyrimidin-4-yl)-2,8-diazaspiro[4.5]decane-3-carboxylic acid], in assay [1] (setting [4]), the IC50 lay in the range of 300 to 3000 nM. For the same compound, the “Efficacy (statistical significance of reduction of mucosal 5-HT concentrations relative to vehicle)” value in assay [2] is reported as “** (** refers to P<0.01)”.

Take `CCCCc1ccc(-n2ccc(C)n2)c([C@@H](Oc2cc(N3CCC4(CC3)CN[C@H](C(=O)O)C4)nc(N)n2)C(F)(F)F)c1` [Example 22c, (S)-8-(2-amino-6-((R)-1-(5-butyl-2-(3-methyl-1H-pyrazol-1-yl)phenyl)-2,2,2-trifluoroethoxy)pyrimidin-4-yl)-2,8-diazaspiro[4.5]decane-3-carboxylic acid]: the IC50 in assay [1] (setting [4]) was less than 50 nM. Moreover, the “Efficacy (statistical significance of reduction of mucosal 5-HT concentrations relative to vehicle)” value in assay [2] is “* (* refers to P<0.05)”.

For `Nc1nc(O[C@H](c2ccc(Cl)cc2-c2ccc(Cl)s2)C(F)(F)F)cc(N2CCC3(CC2)CN[C@H](C(=O)O)C3)n1` [Example 34s, (S)-8-(2-amino-6-((R)-1-(4-chloro-2-(5-chlorothiophen-2-yl)phenyl)-2,2,2-trifluoroethoxy)pyrimidin-4-yl)-2,8-diazaspiro[4.5]decane-3-carboxylic acid], the IC50 in assay [1] (setting [4]) fell in the range of 50 to 300 nM. The “Efficacy (statistical significance of reduction of mucosal 5-HT concentrations relative to vehicle)” value in assay [2] is “** (** refers to P<0.01)”.

On to `Nc1nc(O[C@H](c2ccc(Cl)cc2-c2cccc(S(N)(=O)=O)c2)C(F)(F)F)cc(N2CCC3(CC2)CN[C@H](C(=O)O)C3)n1` [Example 34u, (S)-8-(2-amino-6-((R)-1-(5-chloro-3′-sulfamoyl-[1,1′-biphenyl]-2-yl)-2,2,2-trifluoroethoxy)pyrimidin-4-yl)-2,8-diazaspiro[4.5]decane-3-carboxylic acid], for which the IC50 in assay [1] (setting [5]) is less than 50 nM. Also, the “Efficacy (statistical significance of reduction of mucosal 5-HT concentrations relative to vehicle)” value in assay [2] is given as “* (* refers to P<0.05)”.

Turning to `Nc1nc(O[C@H](c2ccc(Cl)cc2-c2cccc(O)c2)C(F)(F)F)cc(N2CCC3(CC2)CN[C@H](C(=O)O)C3)n1` [Example 34v, (S)-8-(2-amino-6-((R)-1-(5-chloro-3′-hydroxy-[1,1′-biphenyl]-2-yl)-2,2,2-trifluoroethoxy)pyrimidin-4-yl)-2,8-diazaspiro[4.5]decane-3-carboxylic acid], the IC50 in assay [1] (setting [4]) was less than 50 nM. In assay [2], the “Efficacy (statistical significance of reduction of mucosal 5-HT concentrations relative to vehicle)” value is recorded as “* (* refers to P<0.05)”.

In the case of `CS(=O)(=O)c1cccc(-c2cc(Cl)ccc2[C@@H](Oc2cc(N3CCC4(CC3)CN[C@H](C(=O)O)C4)nc(N)n2)C(F)(F)F)c1` [Example 34w, (S)-8-(2-amino-6-((R)-1-(5-chloro-3′-(methylsulfonyl)-[1,1′-biphenyl]-2-yl)-2,2,2-trifluoroethoxy)pyrimidin-4-yl)-2,8-diazaspiro[4.5]decane-3-carboxylic acid], in assay [1] (setting [5]), the IC50 was less than 50 nM. In addition, in assay [2], the “Efficacy (statistical significance of reduction of mucosal 5-HT concentrations relative to vehicle)” value was “*** (*** refers to P<0.005)”.

Take `COc1cccc(-c2ccc(C(Oc3cc(N4CCC5(CC4)CN[C@H](C(=O)O)C5)nc(N)n3)C(F)(F)F)cc2)c1` (stereo partly drawn) [Example 55al, (3S)-8-(2-amino-6-(2,2,2-trifluoro-1-(3′-methoxy-[1,1′-biphenyl]-4-yl)ethoxy)pyrimidin-4-yl)-2,8-diazaspiro[4.5]decane-3-carboxylic acid]: the IC50 in assay [1] (setting [4]) was in the range of 50 to 300 nM. Also, the “Efficacy (statistical significance of reduction of mucosal 5-HT concentrations relative to vehicle)” value in assay [2] is listed as “* (* refers to P<0.05)”.

As for `Nc1nc(O[C@H](c2ccc(-c3cccc(F)c3)cc2)C(F)(F)F)cc(N2CCC3(CC2)CN[C@H](C(=O)O)C3)n1` [Example 55am, (S)-8-(2-amino-6-((R)-2,2,2-trifluoro-1-(3′-fluoro-[1,1′-biphenyl]-4-yl)ethoxy)pyrimidin-4-yl)-2,8-diazaspiro[4.5]decane-3-carboxylic acid], the IC50 in assay [1] (setting [4]) lay within 50 to 300 nM. Also, in assay [2], the “Efficacy (statistical significance of reduction of mucosal 5-HT concentrations relative to vehicle)” value is on record as “*** (*** refers to P<0.005)”.

As for `COc1cccc(-c2ccc([C@@H](Oc3cc(N4CCC5(CC4)CN[C@H](C(=O)O)C5)nc(N)n3)C(F)(F)F)cc2)c1` [Example 55an, (S)-8-(2-amino-6-((R)-2,2,2-trifluoro-1-(3′-methoxy-[1,1′-biphenyl]-4-yl)ethoxy)pyrimidin-4-yl)-2,8-diazaspiro[4.5]decane-3-carboxylic acid], the IC50 in assay [1] (setting [4]) is 50 to 300 nM. The “Efficacy (statistical significance of reduction of mucosal 5-HT concentrations relative to vehicle)” value in assay [2] is reported as “*** (*** refers to P<0.005)”.

Regarding `Cc1n[nH]c2cc(-c3ccc([C@@H](Oc4cc(N5CCC6(CC5)CN[C@H](C(=O)O)C6)nc(N)n4)C(F)(F)F)cc3)ccc12` [Example 55az, (S)-8-(2-amino-6-((R)-2,2,2-trifluoro-1-(4-(3-methyl-1H-indazol-6-yl)phenyl)ethoxy)pyrimidin-4-yl)-2,8-diazaspiro[4.5]decane-3-carboxylic acid], the IC50 in assay [1] (setting [4]) is less than 50 nM. In assay [2], the “Efficacy (statistical significance of reduction of mucosal 5-HT concentrations relative to vehicle)” value is “*** (*** refers to P<0.005)”.

On to `Nc1nc(O[C@H](c2ccc(-c3ccc4c(c3)CCNC4=O)cc2)C(F)(F)F)cc(N2CCC3(CC2)CN[C@H](C(=O)O)C3)n1` [Example 55bc, (S)-8-(2-amino-6-((R)-2,2,2-trifluoro-1-(4-(1-oxo-1,2,3,4-tetrahydroisoquinolin-6-yl)phenyl)ethoxy)pyrimidin-4-yl)-2,8-diazaspiro[4.5]decane-3-carboxylic acid], for which the IC50 in assay [1] (setting [4]) is less than 50 nM. Further, the “Efficacy (statistical significance of reduction of mucosal 5-HT concentrations relative to vehicle)” value in assay [2] is “** (** refers to P<0.01)”.

With `Nc1nc(O[C@H](c2ccc(-c3ccc4cnccc4c3)cc2)C(F)(F)F)cc(N2CCC3(CC2)CN[C@H](C(=O)O)C3)n1` [Example 55bd, (S)-8-(2-amino-6-((R)-2,2,2-trifluoro-1-(4-(isoquinolin-6-yl)phenyl)ethoxy)pyrimidin-4-yl)-2,8-diazaspiro[4.5]decane-3-carboxylic acid], the IC50 in assay [1] (setting [5]) was less than 50 nM. Besides, in assay [2], the “Efficacy (statistical significance of reduction of mucosal 5-HT concentrations relative to vehicle)” value is “*** (*** refers to P<0.005)”.

In the case of `Nc1nc(O[C@H](c2ccc(-c3ccc4ncsc4c3)cc2)C(F)(F)F)cc(N2CCC3(CC2)CN[C@H](C(=O)O)C3)n1` [Example 55k, (S)-8-(2-amino-6-((R)-1-(4-(benzo[d]thiazol-6-yl)phenyl)-2,2,2-trifluoroethoxy)pyrimidin-4-yl)-2,8-diazaspiro[4.5]decane-3-carboxylic acid], in assay [1] (setting [4]), the IC50 was in the range of 50 to 300 nM. For the same compound, the “Efficacy (statistical significance of reduction of mucosal 5-HT concentrations relative to vehicle)” value in assay [2] is given as “* (* refers to P<0.05)”.

`CCOC(=O)[C@@H]1CC2(CCN(c3cc(O[C@H](c4cc(Cl)ccc4-c4cccc(S(C)(=O)=O)c4)C(F)(F)F)nc(N)n3)CC2)CN1` [Example 63ae, (S)-ethyl 8-(2-amino-6-((R)-1-(4-chloro-3′-(methylsulfonyl)-[1,1′-biphenyl]-2-yl)-2,2,2-trifluoroethoxy)pyrimidin-4-yl)-2,8-diazaspiro[4.5]decane-3-carboxylate]: in assay [3], the “Efficacy (statistical significance of reduction of mucosal 5-HT concentrations relative to vehicle)” value is recorded as “*** (*** refers to P<0.005)”.

Consider “(3S)-8-(2-amino-6-(2,2,2-trifluoro-1-(3′-fluoro- [1,1′-biphenyl]-4-yl)ethoxy)pyrimidin-4-yl)-2,8- diazaspiro[4.5]decane-3-carboxylic acid [Example 55ak]”, for which the IC50 in assay [1] (setting [4]) lay within 300 to 3000 nM. Besides, in assay [2], the “Efficacy (statistical significance of reduction of mucosal 5-HT concentrations relative to vehicle)” value was “** (** refers to P<0.01)”.
